# Experimental data from patent US20240374552A1, “Compositions and Methods for Preventing or Reducing the Risk of Metabolic Syndrome” (priority 2021, published 2024).
# System: High-Fat Diet (HFD) induced obesity model
# Assay: Effectiveness on metabolic syndrome risk factors, high-fat diet-induced obesity model
# Conditions: for Body mass index / Cholesterol (%) / Fat free mass / Fat mass / Food consumption (%) / Glucose (%) / Triglycerides (%) / Weight loss (%): reduction, negative = increase
# [1] = ED4: HFD, 0.001 mg/Kg daily 2 weeks
# [2] = ED5: Normal diet, 0.001 mg/Kg daily 2 weeks
# [3] = ED6: HFD, 0.0175 mg/Kg daily 2 weeks
# [4] = ED7: Normal diet, 0.0175 mg/Kg daily 2 weeks
# [5] = ED8: HFD, 0.175 mg/Kg daily 2 weeks
# [6] = ED9: Normal diet, 0.175 mg/Kg daily 2 weeks
# [7] = ED10: HFD, 0.18 mg/Kg daily 2 weeks
# [8] = ED11: Normal diet, 0.18 mg/Kg daily 2 weeks
# [9] = ED12: HFD, 0.1999 mg/Kg daily 2 weeks
# [10] = ED13: Normal diet, 0.1999 mg/Kg daily 2 weeks
# [11] = EH4: HFD, 0.20 mg/Kg daily 2 weeks, purity min 95%
# [12] = EH5: Normal diet, 0.20 mg/Kg daily 2 weeks, purity min 95%
# [13] = EH6: HFD, 0.76 mg/Kg daily 2 weeks, purity min 95%
# [14] = EH7: Normal diet, 0.76 mg/Kg daily 2 weeks, purity min 95%
# [15] = EH8: HFD, 1.75 mg/Kg daily 2 weeks, purity min 95%
# [16] = EH9: Normal diet, 1.75 mg/Kg daily 2 weeks, purity min 95%
# [17] = EH10: HFD, 5.50 mg/Kg daily 2 weeks, purity min 95%
# [18] = EH11: Normal diet, 5.50 mg/Kg daily 2 weeks, purity min 95%
# [19] = EH12: HFD, 25.00 mg/Kg daily 2 weeks, purity min 95%
# [20] = EH13: Normal diet, 25.00 mg/Kg daily 2 weeks, purity min 95%
# [21] = EH14: HFD, 55.50 mg/Kg daily 2 weeks, purity min 95%
# [22] = EH15: Normal diet, 55.50 mg/Kg daily 2 weeks, purity min 95%
# [23] = doses 0.001 mg/Kg to about 0.1999 mg/Kg
# [24] = doses 0.20 mg/Kg to about 1.75 mg/Kg
# Source text: Animal studies in high-fat diet-induced obesity model in a total 75 male C57BL/6/CIEABR mice 6 to 7 weeks of age.
# The test system is based on the High-Fat Diet (HFD) induced obesity model.
# During the quarantine period (10 days), all animals were given rodent food “PicoLab Mouse Diet 5058” food, later, they were given high fat food “Tso's High Fat Diet With Butter Fat” or “PicoLab Mouse Diet 5058” food, according to the assignment of the type of diet and treatment that each animal should consume (See table 3 and table 4).
# At the end of the induction period, the administration of the different treatments began. The test product, vehicle, and controls were administered daily for two weeks. Administration was orally using curved stainless steel gastric tubes (18 G×1.5) previously sanitized; administration was performed at 11:00±1 h.
# For each treatment, different parameters were quantified to determine their decrease regarding the treatment applied to each group: weight loss (%), feed consumption (%), fat free mass (g), fat mass (g), body mass index, glucose (%), cholesterol (%) and triglycerides (%).
structure (smiles),measurement,setting,value
"CC(C)(C)c1cc(C=C(C#N)C#N)cc(C(C)(C)C)c1O [tyrphostin AG17, Tyrphostin AG17]",Body mass index,[1],1.04
same,Cholesterol (%),[1],−0.03%
same,Fat free mass,[1],-2.69 g
same,Fat mass,[1],-0.54 g
same,Food consumption (%),[1],−4.21%
same,Glucose (%),[1],0.75%
same,Triglycerides (%),[1],4.35%
same,Weight loss (%),[1],3.17%
same,Body mass index,[2],1.69
same,Cholesterol (%),[2],0.10%
same,Fat free mass,[2],-4.02 g
same,Fat mass,[2],1.28 g
same,Food consumption (%),[2],1.05%
same,Glucose (%),[2],1.33%
same,Triglycerides (%),[2],7.83%
same,Weight loss (%),[2],4.01%
same,Body mass index,[3],2.03
same,Cholesterol (%),[3],0.04%
same,Fat free mass,[3],1.22 g
same,Fat mass,[3],-0.31 g
same,Food consumption (%),[3],13.04%
same,Glucose (%),[3],0.92%
same,Triglycerides (%),[3],17.39%
same,Weight loss (%),[3],6.19%
same,Body mass index,[4],2.73
same,Cholesterol (%),[4],0.44%
same,Fat free mass,[4],3.21 g
same,Fat mass,[4],2.59 g
same,Food consumption (%),[4],17.39%
same,Glucose (%),[4],1.24%
same,Triglycerides (%),[4],20.00%
same,Weight loss (%),[4],8.40%
same,Body mass index,[5],4.41
same,Cholesterol (%),[5],0.65%
same,Fat free mass,[5],2.34 g
same,Fat mass,[5],1.28 g
same,Food consumption (%),[5],25.00%
same,Glucose (%),[5],1.36%
same,Triglycerides (%),[5],24.35%
same,Weight loss (%),[5],17.16%
same,Body mass index,[6],4.30
same,Cholesterol (%),[6],1.30%
same,Fat free mass,[6],3.98 g
same,Fat mass,[6],3.56 g
same,Food consumption (%),[6],20.83%
same,Glucose (%),[6],1.93%
same,Triglycerides (%),[6],25.22%
same,Weight loss (%),[6],22.13%
same,Body mass index,[7],3.30
same,Cholesterol (%),[7],1.10%
same,Fat free mass,[7],3.32 g
same,Fat mass,[7],-0.10 g
same,Food consumption (%),[7],21.74%
same,Glucose (%),[7],1.49%
same,Triglycerides (%),[7],32.17%
same,Weight loss (%),[7],16.56%
same,Body mass index,[8],4.22
same,Cholesterol (%),[8],1.27%
same,Fat free mass,[8],5.11 g
same,Fat mass,[8],4.92 g
same,Food consumption (%),[8],22.92%
same,Glucose (%),[8],2.31%
same,Triglycerides (%),[8],29.57%
same,Weight loss (%),[8],20.88%
same,Body mass index,[9],3.35
same,Cholesterol (%),[9],0.94%
same,Fat free mass,[9],3.41 g
same,Fat mass,[9],0.36 g
same,Food consumption (%),[9],22.27%
same,Glucose (%),[9],1.40%
same,Triglycerides (%),[9],30.54%
same,Weight loss (%),[9],16.24%
same,Body mass index,[10],3.91
same,Cholesterol (%),[10],2.44%
same,Fat free mass,[10],5.39 g
same,Fat mass,[10],6.02 g
same,Food consumption (%),[10],23.11%
same,Glucose (%),[10],2.11%
same,Triglycerides (%),[10],30.43%
same,Weight loss (%),[10],18.21%
same,Body mass index,[11],3.34
same,Cholesterol (%),[11],1.13%
same,Fat free mass,[11],3.44 g
same,Fat mass,[11],0.39 g
same,Food consumption (%),[11],18.18%
same,Glucose (%),[11],1.43%
same,Triglycerides (%),[11],31.02%
same,Weight loss (%),[11],20.88%
same,Body mass index,[12],4.05
same,Cholesterol (%),[12],2.48%
same,Fat free mass,[12],4.92 g
same,Fat mass,[12],5.99 g
same,Food consumption (%),[12],22.07%
same,Glucose (%),[12],2.15%
same,Triglycerides (%),[12],30.75%
same,Weight loss (%),[12],20.97%
same,Body mass index,[13],2.23
same,Cholesterol (%),[13],1.49%
same,Fat free mass,[13],2.39 g
same,Fat mass,[13],1.21 g
same,Food consumption (%),[13],23.81%
same,Glucose (%),[13],2.05%
same,Triglycerides (%),[13],33.12%
same,Weight loss (%),[13],14.92%
same,Body mass index,[14],3.43
same,Cholesterol (%),[14],3.38%
same,Fat free mass,[14],3.94 g
same,Fat mass,[14],7.52 g
same,Food consumption (%),[14],30.10%
same,Glucose (%),[14],2.04%
same,Triglycerides (%),[14],31.74%
same,Weight loss (%),[14],17.21%
same,Body mass index,[15],2.50
same,Cholesterol (%),[15],2.02%
same,Fat free mass,[15],-0.12 g
same,Fat mass,[15],1.05 g
same,Food consumption (%),[15],33.11%
same,Glucose (%),[15],2.19%
same,Triglycerides (%),[15],33.45%
same,Weight loss (%),[15],18.14%
same,Body mass index,[16],3.40
same,Cholesterol (%),[16],3.43%
same,Fat free mass,[16],1.04 g
same,Fat mass,[16],6.98 g
same,Food consumption (%),[16],35.18%
same,Glucose (%),[16],2.43%
same,Triglycerides (%),[16],32.42%
same,Weight loss (%),[16],13.88%
same,Body mass index,[17],3.30
same,Cholesterol (%),[17],2.36%
same,Fat free mass,[17],-0.04 g
same,Fat mass,[17],1.28 g
same,Food consumption (%),[17],38.09%
same,Glucose (%),[17],3.11%
same,Triglycerides (%),[17],34.17%
same,Weight loss (%),[17],7.83%
same,Body mass index,[18],4.22
same,Cholesterol (%),[18],3.44%
same,Fat free mass,[18],0.42 g
same,Fat mass,[18],5.41 g
same,Food consumption (%),[18],47.82%
same,Glucose (%),[18],2.03%
same,Triglycerides (%),[18],32.56%
same,Weight loss (%),[18],8.87%
same,Body mass index,[19],3.35
same,Cholesterol (%),[19],2.49%
same,Fat free mass,[19],-0.13 g
same,Fat mass,[19],1.20 g
same,Food consumption (%),[19],37.27%
same,Glucose (%),[19],4.20%
same,Triglycerides (%),[19],37.21%
same,Weight loss (%),[19],9.27%
same,Body mass index,[20],3.91
same,Cholesterol (%),[20],3.45%
same,Fat free mass,[20],-0.10 g
same,Fat mass,[20],5.58 g
same,Food consumption (%),[20],40.91%
same,Glucose (%),[20],2.10%
same,Triglycerides (%),[20],32.45%
same,Weight loss (%),[20],7.30%
same,Body mass index,[21],2.54
same,Cholesterol (%),[21],2.33%
same,Fat free mass,[21],-0.12 g
same,Fat mass,[21],1.06 g
same,Food consumption (%),[21],33.12%
same,Glucose (%),[21],4.38%
same,Triglycerides (%),[21],37.84%
same,Weight loss (%),[21],3.49%
same,Body mass index,[22],2.99
same,Cholesterol (%),[22],3.58%
same,Fat free mass,[22],-0.09 g
same,Fat mass,[22],5.01 g
same,Food consumption (%),[22],41.37%
same,Glucose (%),[22],1.91%
same,Triglycerides (%),[22],33.32%
same,Weight loss (%),[22],4.44%
same,Concentration of triglycerides,[23],considerable decrease
same,Levels of HDL and glucose,[23],maintaining the levels of HDL and glucose
same,Liver damage or toxic effects,[23],low presence of liver damage or toxic effects
same,Weight,[23],considerable decrease
same,Concentration of triglycerides,[24],decrease
same,Glucose levels,[24],maintained
same,HDL levels,[24],reduced
same,Weight,[24],decrease
same,Effect on the liver and toxic effects,"doses 0.20 mg/Kg to about 1.75 mg/Kg, high purity tyrphostin",reduced the effect on the hepatic liver as well as the toxic effects
